Each molecule was assayed against T1, Tyrosine-protein kinase Fyn (Homo sapiens, UniProt P06241) (assay: Inhibition of peptide EPQ (pY) EEIPI binding to Fyn protein kinase SH2 domain).
T1 sequence (P06241 whole entry, the tested form may be a part): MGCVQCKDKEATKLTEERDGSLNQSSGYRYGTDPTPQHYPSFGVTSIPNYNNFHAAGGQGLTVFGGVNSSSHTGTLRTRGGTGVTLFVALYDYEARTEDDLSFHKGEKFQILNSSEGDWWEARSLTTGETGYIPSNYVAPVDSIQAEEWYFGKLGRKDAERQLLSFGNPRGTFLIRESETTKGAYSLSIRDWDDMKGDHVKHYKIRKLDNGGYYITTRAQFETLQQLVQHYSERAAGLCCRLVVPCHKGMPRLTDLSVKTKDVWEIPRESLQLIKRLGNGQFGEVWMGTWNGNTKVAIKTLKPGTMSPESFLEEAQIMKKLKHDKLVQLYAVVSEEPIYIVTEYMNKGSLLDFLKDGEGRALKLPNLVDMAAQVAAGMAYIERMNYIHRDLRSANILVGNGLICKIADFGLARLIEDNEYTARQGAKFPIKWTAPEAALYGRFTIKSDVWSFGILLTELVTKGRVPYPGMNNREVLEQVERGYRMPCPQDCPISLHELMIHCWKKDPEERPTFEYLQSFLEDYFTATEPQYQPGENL

SMILES	IC50 [µM]
Oc1cc2c(cc1O)CC(NCc1ccccc1)C2	10
CCCC1Cc2cc(O)c(O)cc2C1	1
CCCN(CCC)C1Cc2c(O)ccc(O)c2C1	50
Oc1cc2c(cc1O)CC(N1CCCCC1)C2	10
CCCN(CCC)C1Cc2cc(O)c(O)cc2C1	10
CC1=CC(=O)C(=O)C=C1C	1
CCCN(CCC)C1CCc2cc(O)c(O)cc2C1 (centres undefined)	50
NC1Cc2cc(O)c(O)cc2C1	10

Each molecule was assayed against T1, Tyrosine-protein kinase Fyn (assay: Inhibition of peptide EPQ (pY) EEIPI binding to Fyn protein kinase SH2 domain at 100 uM (no inhibition)).

SMILES	IC50 [µM]
NCCc1ccc(O)c(O)c1 [DOPAMINE]	> 100
CCCN(CCC)C1Cc2ccc(O)cc2C1 (centres undefined)	> 100
CCCN(CCC)C1Cc2cc(O)cc(O)c2C1 (centres undefined)	> 100
CCCN(CCC)C1Cc2cc(O)c(OC)cc2C1 (centres undefined)	> 100
CCCN(CCC)C1Cc2cc(OC)c(OC)cc2C1 [PNU-99194A]	> 100
CCCN(CCC)CCc1ccc(O)c(O)c1	> 100

— ChEMBL document CHEMBL1130553, “Covalent binding of catechols to src family SH2 domains” (Bioorg Med Chem Lett, 1997)
